Laboratory results as given in patent publication US20110104301A1, “METHODS OF REDUCING PAIN AND INFLAMMATION” (Georgetown University, A Congressionally Chartered …, priority 2008, published 2011).
“Also recorded” adds a separate entry of the source.

Columns and labels:
TRPV1 [1] = biological target: T1, TRPV1 (Mus musculus, UniProt Q704Y3); assay: Patch-clamp of capsaicin-sensitive sensory neurons (nodose ganglia); assay type: cell-based
T1 construct: endogenous in cells; host or cells: primary nodose ganglion neurons of adult C57Bl6/J mice
Experimental: (§1) HEK cell and sensory neuron electrophysiology. HEK 293F cells (Invitrogen) were cultured in DMEM supplemented with 1% non-essential amino acids and 10% fetal calf serum. Cell cultures were maintained at 37° C. with 5% CO2. Cells were transfected with rat TRPV 1 (gift of David Julius), and GFP cDNA using Lipofectamine™ Transfection Reagent (Invitrogen) and used 24-48 h after transfection. Nodose ganglia were obtained from adult mice (C57B16/J and TRPV1-null), cut, digested with collagenase, and cultured in Neurobasal +2% B-27 medium (Invitrogen), 0.1% L-glutamine and 1% penicillin/streptomycin on poly-D lysine-coated glass coverslips at 37° C. in 5% CO2. Neurons were used within 24-36 hr of culture. Whole-cell and single-channel patch clamp recordings were performed using an EPC8 amplifier (HEKA). The current signal was low-pass filtered at 1-3 kHz and sampled at 4 kHz. Currents were further filtered for display purposes. For whole-cell and excised patch recordings the bath solution contained (in mM): 140 NaCl, 4 KCl, 1 MgCl2, 1 EGTA, 10 HEPES, 10 glucose pH 7.3 (290 mOsm). The pipette solution contained (in mM): 140 CsC1, 10 NaCl, 10 HEPES, 5 EGTA, 2 Mg ATP and 0.03 GTP, pH 7.3. The peak amplitudes measured either during the prepulse or the tail current (within 1 ms) were plotted as a function of the test potential and normalized to the maximal current obtained from the following Boltzmann function: […]

[2] = tested on: AITC-sensitive DRG neurons; assay: Voltage- and current-clamp of DRG sensory neurons; assay type: cell-based, mouse; details: camphor 0.5 mM, propofol 100 μM
Experimental: (§2) Electrophysiology. HEK 293F cells were transfected with rat TRPV1, TRPA1, and TRPM8 (gift of David Julius, University of California, San Francisco). Dorsal root ganglia were cultured from adult mice (C57B16/J wild type and TRPV1-null, and mixed B6/129 background TRPA1-null) in Neurobasal +2% B-27 medium (Invitrogen), 0.1% L-glutamine and 1% penicillin/streptomycin. Whole-cell and single-channel patch-clamp recordings were performed by using an EPC8 amplifier (HEKA Electronics). For whole-cell and excised patch recordings the bath solution contained 140 mMNaCl, 4 mMKCl, 1 mMMgCl2, 1.2 mMCaCl2, 10 mMHepes, 10 mM glucose, pH 7.3. For cell-attached experiments, NaCl was replaced with KCl in the bath solution. The pipette solution contained 140 mM NaCl or KCl, 10 mM Hepes, 5 mM EGTA, pH 7.3. For neuronal recording NaCl was replaced with K-gluconate (plus 1 mMATP, 0.2 mM GTP). Solutions were applied via a gravity-fed system. Separate outlets were used to apply capsaicin and AITC solutions to avoid contamination. Voltage-dependent properties were measured as described in Matt and Ahern, J. Physiol. 585:469-482 (2007). Current-voltage measurements comprised a 200-ms ramp from −150 mV to +200 mV. The baseline currents under control conditions were subtracted. For cell-attached experiments, peak amplitudes were measured from all-points histograms, and open probability was measured as NPo>750 ms. Defolliculated Xenopus laevis oocytes were injected with ≈10 ng of hTRPA1 (gift of Ardem Patapoutian, The Scripps Research Institute, La Jolla, Calif.). Oocytes were placed in a Perspex chamber and continuously superfused (5 ml min^−1) with Ca^2+-free solution containing 100 mM NaCl, 2.5 mM KCl, 5 mM Hepes, 1 mM MgC12 and titrated to pH 7.3 with ˜5 mM NaOH.

[3] = tested on: DRG neurons from TRPA1-null mice; assay: Ca2+ imaging in DRG neurons from TRPA1-null mice; assay type: cell-based, mouse; details: capsaicin 100 nM
Experimental: Ca^2+ Imaging. Neurons were loaded with 1 μM Fluo4-AM (Molecular Probes) for 20 min and washed for a further 10-20 min before recording. The dye was excited at 488±15 nm. Emitted fluorescence was filtered with a 535±25 nm bandpass filter, captured by a SPOT RT digital camera (Diagnostic Instruments) and read into a computer. Analysis was performed offline by using Simple PCI software (Compix Inc.).

mice [4] = assay: Nocifensive behavior after topical application to the nasal epithelium; assay type: in vivo, mouse; details: capsaicin 10 mM
Experimental: (§3) Behavioral Experiments and Neurogenic Inflammation. Animal experiments were performed according to National Institutes of Health and institutional guidelines. […] Nocifensive behavior (nose wiping in sawdust bedding) was recorded for 2 min with a video camera and the duration was subsequently measured by a blinded observer. […] Electromyographic (EMG) activity was recorded via platinum electrodes from the semitendinosus muscle in mice anesthetized with urethane (1.3 g/kg) as described in Ando and Watanabe, Br J. Anaesth. […] The EMG signal was recorded by using a low-pass cutoff frequency of 200 Hz and integrated offline by using a 100-ms time window. […] Ear thickness was recorded by using an engineer's micrometer (Mitutoyo Corp.) before mustard-oil application and thereafter every 15 min for 60 min of anesthesia and 60 min of recovery.

mice [5] = assay: Flexor reflex response (EMG of semitendinosus muscle) after femoral artery injection; assay type: in vivo, mouse; details: propofol 500 μM, capsaicin 50 μM
Experimental: as §3

TRPV1 [6] = biological target: T2, TRPV1 (Rattus norvegicus, UniProt O35433); assay: Whole-cell patch-clamp of TRPV1-expressing HEK293 cells; assay type: cell-based; design: expressed in transfected cells; host or cells: HEK 293F (Invitrogen), co-transfected with GFP cDNA; details: for Shifts in TRPV1 V1/2 and increases in maximal conductance by alcohols: decanol 0.6 mM, dodecanol 0.1 mM
Experimental: (§4) Electrophysiology. […] Whole-cell and single-channel patch-clamp recordings were performed by using an EPC8 amplifier (HEKA Electronics). For whole-cell and excised patch recordings the bath solution contained 140 mMNaCl, 4 mMKCl, 1 mMMgCl2, 1.2 mMCaCl2, 10 mMHepes, 10 mM glucose, pH 7.3. For cell-attached experiments, NaCl was replaced with KCl in the bath solution. […] For neuronal recording NaCl was replaced with K-gluconate (plus 1 mMATP, 0.2 mM GTP). Solutions were applied via a gravity-fed system. […] Voltage-dependent properties were measured as described in Matt and Ahern, J. Physiol. […] The baseline currents under control conditions were subtracted. For cell-attached experiments, peak amplitudes were measured from all-points histograms, and open probability was measured as NPo>750 ms. Defolliculated Xenopus laevis oocytes were injected with ≈10 ng of hTRPA1 (gift of Ardem Patapoutian, The Scripps Research Institute, La Jolla, Calif.).
as §1, with “HEK 293F cells (Invitrogen) were cultured in DMEM supplemented with 1% non-essential amino acids and 10% fetal calf serum.” left out

TRPV1 [7] = biological target: T2, TRPV1; assay: Voltage-clamp of TRPV1-expressing Xenopus oocytes (capsaicin, protons, heat); assay type: cell-based; details: VGAs 0.6 mM, pH 5.5
Experimental: Oocyte electrophysiology. […] Oocytes were placed in a Perspex chamber and continuously superfused (5 ml min-1) with Ca2+-free solution containing (in mM): 100 NaCl, 2.5 KCl, 5 HEPES, 1 MgCl2 and titrated to pH 7.3 with ˜5 mM NaOH. For solutions <pH 6.0, HEPES was replaced with either 5 mM MES or 5 mM sodium citrate. Oocytes were routinely voltage-clamped at −60 mV at 22-23° C. For heat activation, bath temperature was raised from ˜22-50° C. over ˜100 s using an in-line solution heater (Warner Instruments). The temperature was continuously monitored with a probe placed within 2 mm of the oocyte. The temperature-activation threshold was defined as a 20% increase in current above baseline.
Volatile general anesthetics. Saturated stock solutions of volatile general anesthetics (VGAs) were prepared in gas-tight bottles by dissolving excess anesthetic agents in bath solutions and stirring vigorously overnight. From these stock solutions fresh dilutions were made up every 40-60 minutes. Concentrations of volatile anesthetics in the bath solutions were verified using a modified head-space gas chromatography method. The gas chromatograph (Carlo Erba, Milan, Italy) was equipped with a flame ionization detector (FID) and mass spectrometer. The carrier gas was hydrogen (60 kPa column head pressure) and the fused silica capillary column, coated with polysiloxane SE-30, was 25 m×0.25 mm. Injector temperature was 250° C., FID temperature was 300° C. and the oven was maintained at 90° C. Standards were prepared from a mixture of halothane, isoflurane, and sevoflurane dissolved in acetonitrile with enflurane as an internal standard.

[8] = rat at 37° C.; cited from earlier work
TRPM8 = biological target: T3, TRPM8 (Rattus norvegicus, UniProt Q8R455); assay: Whole-cell patch-clamp of TRPM8-expressing HEK293 cells; assay type: cell-based
T3 construct: expressed in transfected cells; host or cells: HEK 293F
Experimental: as §4

TRPA1 = biological target: T4, TRPA1 (Rattus norvegicus, UniProt Q6RI86); assay: Whole-cell patch-clamp of TRPA1-expressing HEK293 cells; assay type: cell-based; details: for Activation of TRPA1 currents by VGAs: 0.9 mM, voltage-clamped HEK293 cells
T4 construct: expressed in transfected cells; host or cells: HEK 293F
Experimental: as §4
Volatile General Anesthetics and Chemicals. Saturated stock solutions of volatile GAs were prepared in gas-tight bottles by dissolving excess anesthetic agents in bath solutions overnight. From these stock solutions fresh dilutions were made up every 40-60 min. Concentrations of GAs in the bath solutions were verified by using a modified head-space gas chromatography method. […] Alcohols with <6 carbons were dissolved directly into extracellular solution, and alcohols containing 6 carbons or more were dissolved in DMSO and then diluted into extracellular solutions that were sonicated for 20 min. All other drugs were prepared as stock solutions in DMSO or ethanol and diluted into physiological solution before experiments.

hTRPA1 = biological target: T5, hTRPA1 (Homo sapiens, UniProt O75762); assay: AITC-evoked currents in TRPA1-expressing Xenopus oocytes; assay type: cell-based; details: VGAs 0.5-0.65 mM, AITC 10 μM
T5 construct: expressed in transfected cells; host or cells: Xenopus laevis oocytes (injected)
Experimental: as §2

[9] = isoflurane 0.9 mM, octanol 1 mM

T4 sequence (Q6RI86 whole entry): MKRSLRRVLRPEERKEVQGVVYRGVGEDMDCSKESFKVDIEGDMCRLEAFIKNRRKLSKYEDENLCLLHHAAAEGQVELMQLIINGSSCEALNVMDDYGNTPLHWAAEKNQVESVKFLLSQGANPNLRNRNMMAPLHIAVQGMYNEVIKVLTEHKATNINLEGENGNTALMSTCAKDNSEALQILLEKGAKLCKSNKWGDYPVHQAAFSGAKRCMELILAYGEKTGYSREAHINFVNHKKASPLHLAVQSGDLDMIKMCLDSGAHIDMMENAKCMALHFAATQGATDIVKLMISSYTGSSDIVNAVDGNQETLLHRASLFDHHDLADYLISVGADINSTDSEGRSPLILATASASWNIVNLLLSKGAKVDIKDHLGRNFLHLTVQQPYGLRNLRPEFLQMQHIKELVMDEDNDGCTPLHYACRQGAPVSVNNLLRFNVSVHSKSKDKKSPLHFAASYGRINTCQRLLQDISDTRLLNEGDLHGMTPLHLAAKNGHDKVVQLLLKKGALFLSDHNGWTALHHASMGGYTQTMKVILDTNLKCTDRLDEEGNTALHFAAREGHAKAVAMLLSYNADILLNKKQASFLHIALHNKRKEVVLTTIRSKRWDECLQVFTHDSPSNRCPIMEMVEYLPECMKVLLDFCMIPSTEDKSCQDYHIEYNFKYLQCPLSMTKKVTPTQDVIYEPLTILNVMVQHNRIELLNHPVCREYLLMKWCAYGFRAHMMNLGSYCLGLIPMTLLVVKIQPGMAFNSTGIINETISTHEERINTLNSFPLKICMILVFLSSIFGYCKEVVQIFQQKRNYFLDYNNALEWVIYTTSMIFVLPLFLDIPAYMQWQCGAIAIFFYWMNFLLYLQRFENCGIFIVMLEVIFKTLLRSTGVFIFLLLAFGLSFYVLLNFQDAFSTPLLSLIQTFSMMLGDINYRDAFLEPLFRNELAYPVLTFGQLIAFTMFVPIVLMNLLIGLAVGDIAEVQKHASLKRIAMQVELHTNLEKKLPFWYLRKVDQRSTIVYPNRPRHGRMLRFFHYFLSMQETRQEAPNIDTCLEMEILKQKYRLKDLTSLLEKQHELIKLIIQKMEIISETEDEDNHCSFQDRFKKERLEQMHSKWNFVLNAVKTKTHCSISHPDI
T1 sequence (Q704Y3 whole entry): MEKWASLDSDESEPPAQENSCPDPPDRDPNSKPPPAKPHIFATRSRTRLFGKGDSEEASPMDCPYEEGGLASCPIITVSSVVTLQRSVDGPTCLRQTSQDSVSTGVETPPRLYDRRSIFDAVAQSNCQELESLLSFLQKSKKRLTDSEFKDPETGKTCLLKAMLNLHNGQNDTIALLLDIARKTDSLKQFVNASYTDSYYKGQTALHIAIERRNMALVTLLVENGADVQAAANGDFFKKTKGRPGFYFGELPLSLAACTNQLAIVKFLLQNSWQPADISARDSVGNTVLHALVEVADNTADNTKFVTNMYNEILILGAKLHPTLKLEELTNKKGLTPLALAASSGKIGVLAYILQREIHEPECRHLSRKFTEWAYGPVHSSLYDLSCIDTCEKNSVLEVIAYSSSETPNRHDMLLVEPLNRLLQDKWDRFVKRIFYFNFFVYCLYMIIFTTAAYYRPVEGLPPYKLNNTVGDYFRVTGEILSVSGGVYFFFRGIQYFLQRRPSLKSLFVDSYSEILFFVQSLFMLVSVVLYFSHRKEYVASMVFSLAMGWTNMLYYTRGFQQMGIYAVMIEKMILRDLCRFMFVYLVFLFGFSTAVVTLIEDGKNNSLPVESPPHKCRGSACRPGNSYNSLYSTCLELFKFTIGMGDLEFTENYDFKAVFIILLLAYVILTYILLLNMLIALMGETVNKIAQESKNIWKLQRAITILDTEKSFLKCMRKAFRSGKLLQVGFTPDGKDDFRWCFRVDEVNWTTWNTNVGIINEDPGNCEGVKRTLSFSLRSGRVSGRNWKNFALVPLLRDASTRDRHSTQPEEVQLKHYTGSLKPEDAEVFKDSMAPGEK
T2 sequence (O35433 whole entry): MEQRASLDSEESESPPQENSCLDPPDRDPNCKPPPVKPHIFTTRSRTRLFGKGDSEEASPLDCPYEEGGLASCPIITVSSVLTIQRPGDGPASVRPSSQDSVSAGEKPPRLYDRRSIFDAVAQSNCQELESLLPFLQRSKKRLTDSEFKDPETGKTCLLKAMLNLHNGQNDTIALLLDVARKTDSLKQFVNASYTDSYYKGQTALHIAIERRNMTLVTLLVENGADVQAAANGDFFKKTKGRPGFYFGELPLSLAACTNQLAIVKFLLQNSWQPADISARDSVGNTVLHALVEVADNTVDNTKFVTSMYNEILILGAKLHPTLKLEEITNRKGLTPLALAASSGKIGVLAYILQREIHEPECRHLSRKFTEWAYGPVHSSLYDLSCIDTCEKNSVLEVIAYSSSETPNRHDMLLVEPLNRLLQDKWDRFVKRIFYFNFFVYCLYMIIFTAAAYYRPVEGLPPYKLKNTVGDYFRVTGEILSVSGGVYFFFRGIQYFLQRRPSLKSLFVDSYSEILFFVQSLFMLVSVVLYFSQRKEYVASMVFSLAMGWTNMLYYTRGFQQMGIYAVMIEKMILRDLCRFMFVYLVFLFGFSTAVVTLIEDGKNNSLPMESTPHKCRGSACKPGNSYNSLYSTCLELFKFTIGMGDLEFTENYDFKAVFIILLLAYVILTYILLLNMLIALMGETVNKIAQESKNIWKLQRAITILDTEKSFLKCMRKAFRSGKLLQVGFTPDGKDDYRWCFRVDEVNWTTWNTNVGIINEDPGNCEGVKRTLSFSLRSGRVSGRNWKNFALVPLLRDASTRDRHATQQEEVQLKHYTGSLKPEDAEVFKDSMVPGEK
T3 sequence (Q8R455 whole entry): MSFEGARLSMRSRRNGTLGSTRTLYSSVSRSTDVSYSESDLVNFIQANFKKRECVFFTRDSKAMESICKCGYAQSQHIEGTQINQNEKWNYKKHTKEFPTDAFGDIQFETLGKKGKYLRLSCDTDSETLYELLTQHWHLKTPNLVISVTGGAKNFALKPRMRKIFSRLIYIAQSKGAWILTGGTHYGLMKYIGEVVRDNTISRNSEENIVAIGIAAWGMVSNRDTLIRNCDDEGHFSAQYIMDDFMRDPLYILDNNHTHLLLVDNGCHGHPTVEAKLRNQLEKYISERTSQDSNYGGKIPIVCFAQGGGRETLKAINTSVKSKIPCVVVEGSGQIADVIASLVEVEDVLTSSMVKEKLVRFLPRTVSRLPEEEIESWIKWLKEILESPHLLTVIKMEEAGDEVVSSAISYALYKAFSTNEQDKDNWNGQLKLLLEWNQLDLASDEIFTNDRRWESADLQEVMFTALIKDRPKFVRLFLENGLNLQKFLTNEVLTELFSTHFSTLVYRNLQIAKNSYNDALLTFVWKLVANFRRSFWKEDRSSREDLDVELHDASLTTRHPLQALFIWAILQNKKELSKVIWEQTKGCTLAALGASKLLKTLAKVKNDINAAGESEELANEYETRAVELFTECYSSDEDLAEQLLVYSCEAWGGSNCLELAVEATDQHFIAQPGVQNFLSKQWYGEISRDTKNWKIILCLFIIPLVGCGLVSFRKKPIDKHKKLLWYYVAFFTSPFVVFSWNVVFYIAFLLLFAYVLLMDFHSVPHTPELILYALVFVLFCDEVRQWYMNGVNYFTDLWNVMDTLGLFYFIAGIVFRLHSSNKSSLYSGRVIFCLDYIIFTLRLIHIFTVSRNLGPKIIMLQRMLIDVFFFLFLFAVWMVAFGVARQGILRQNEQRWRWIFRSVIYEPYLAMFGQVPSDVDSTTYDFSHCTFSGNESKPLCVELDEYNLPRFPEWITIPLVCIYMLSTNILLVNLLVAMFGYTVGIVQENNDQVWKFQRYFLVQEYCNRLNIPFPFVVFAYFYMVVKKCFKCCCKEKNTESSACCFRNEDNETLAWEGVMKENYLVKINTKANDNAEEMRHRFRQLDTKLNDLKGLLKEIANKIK
T5 sequence (O75762 whole entry): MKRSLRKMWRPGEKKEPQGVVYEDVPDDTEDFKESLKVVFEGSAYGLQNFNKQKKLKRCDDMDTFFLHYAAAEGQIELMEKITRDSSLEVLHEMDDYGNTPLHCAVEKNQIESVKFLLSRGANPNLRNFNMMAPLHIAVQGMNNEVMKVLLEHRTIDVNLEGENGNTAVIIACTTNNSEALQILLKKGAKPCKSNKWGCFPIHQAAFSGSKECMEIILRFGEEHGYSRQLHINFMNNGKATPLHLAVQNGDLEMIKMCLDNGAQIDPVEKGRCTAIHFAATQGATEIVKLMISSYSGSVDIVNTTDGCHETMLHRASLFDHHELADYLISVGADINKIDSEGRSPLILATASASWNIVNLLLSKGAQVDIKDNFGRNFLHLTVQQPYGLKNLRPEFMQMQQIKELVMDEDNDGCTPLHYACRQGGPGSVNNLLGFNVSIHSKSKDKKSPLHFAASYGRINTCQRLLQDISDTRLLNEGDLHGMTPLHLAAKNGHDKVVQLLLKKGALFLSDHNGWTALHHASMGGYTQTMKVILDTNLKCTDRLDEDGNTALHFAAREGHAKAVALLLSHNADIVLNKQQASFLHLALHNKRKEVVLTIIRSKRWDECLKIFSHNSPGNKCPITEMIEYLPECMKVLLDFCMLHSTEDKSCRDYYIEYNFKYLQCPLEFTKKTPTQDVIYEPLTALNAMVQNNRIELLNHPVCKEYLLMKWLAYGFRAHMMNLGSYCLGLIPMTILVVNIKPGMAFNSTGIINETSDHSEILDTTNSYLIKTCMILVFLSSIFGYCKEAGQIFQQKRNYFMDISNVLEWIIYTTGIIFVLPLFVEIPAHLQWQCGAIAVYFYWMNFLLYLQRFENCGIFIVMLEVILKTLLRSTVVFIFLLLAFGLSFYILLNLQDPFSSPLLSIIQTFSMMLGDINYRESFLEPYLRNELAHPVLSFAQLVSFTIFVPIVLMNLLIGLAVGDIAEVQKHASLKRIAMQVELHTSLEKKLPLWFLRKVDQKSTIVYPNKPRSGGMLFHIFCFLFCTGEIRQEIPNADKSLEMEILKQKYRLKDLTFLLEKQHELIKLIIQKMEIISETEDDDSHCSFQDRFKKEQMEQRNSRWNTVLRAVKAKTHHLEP

CC(C)(C)c1ccc(/C=C/C(=O)Nc2ccc3c(c2)OCCO3)cc1 [AMG9810]
Inhibition of isoflurane-evoked TRPV1 responses after PDBu (TRPV1 [1]): inhibits; also recorded: completely inhibited

CC12CCC(CC1=O)C2(C)C (centres unmarked) [camphor]
Inhibition of propofol-evoked inward currents [2]: blocked; also recorded: sensitive

COc1cc(CNC(=O)CCCC/C=C/C(C)C)ccc1O [capsaicin]
TRPA1-deficient cells sensitive to capsaicin [3]: 43%
Nocifensive behavior in TRPV1-null mice (mice [4]): but not in TRPV 1-null mice
Nocifensive behavior in wild-type mice (mice [4]): produced similar behavior
Flexor reflex muscle activity in TRPA1+/− mice (mice [5]): robust responses
Flexor reflex muscle activity in TRPA1-null mice (mice [5]): robust responses

Oc1cc2c(cc1O)CN(C(=S)NCCc1ccc(Cl)cc1)CCC2 [capsazepine]
Inhibition of responses to isoflurane after BK (TRPV1 [1]; capsazepine 1 μM, 3 of 3 cells): completely inhibited

CCCCCCCCCCO [decanol]
Shifts in TRPV1 V1/2 and increases in maximal conductance by alcohols (TRPV1 [6]; octanol 1 mM): smaller response

CCCCCCCCCCCCO [dodecanol]
Shifts in TRPV1 V1/2 and increases in maximal conductance by alcohols (TRPV1 [6]; octanol 1 mM): without effect

FC(F)OC(F)(F)C(F)Cl (centres unmarked) [enflurane]
Enhancement of proton-evoked currents compared with isoflurane and sevoflurane (TRPV1 [7]): significantly more
1 MAC equivalent aqueous concentration (published conversion factor) [8]: 0.64 mM

CCOC(=O)c1cncn1[C@H](C)c1ccccc1 [etomidate]
Change in V1/2 of TRPM8 (ΔV1/2, increase) (TRPM8; 100 μM, n=5-6): 25.5 mV

FC(F)(F)C(Cl)Br (centres unmarked) [halothane]
Activation of TRPA1 currents by VGAs (TRPA1): without effect
1 MAC equivalent aqueous concentration (published conversion factor) [8]: 0.27 mM
Currents evoked after PDBu treatment in TRPV1-expressing HEK293 cells (TRPV1 [6]; VGA 0.9 mM, PDBu 500 nM, room temperature (25° C.)): activates currents

COC(F)(F)C(Cl)Cl [methoxyflurane]
Effect on AITC-evoked currents (hTRPA1): did not

CCCCCCCCO [octanol]
Activation of TRPA1 at holding potential −50 mV (TRPA1; [9]): selectively activated
Response relative to 1 mM AITC (TRPA1; octanol 1.8 mM, at +200 mV): < 50%
Effects at TRPM8 at holding potential −50 mV (TRPM8; [9]): negligible effects
Effects at TRPV1 at holding potential −50 mV (TRPV1 [6]; [9]): negligible effects
Shifts in TRPV1 V1/2 and increases in maximal conductance by alcohols (TRPV1 [6]; octanol 1 mM): reached a maximum
Response relative to 10 μM capsaicin (TRPV1 [6]; octanol 1.8 mM, at 200 mV): ~40%

FCOC(C(F)(F)F)C(F)(F)F [sevoflurane]
Activation of TRPA1 currents by VGAs (TRPA1): without effect
Effect on AITC-evoked currents (hTRPA1): did not
1 MAC equivalent aqueous concentration (published conversion factor) [8]: 0.35 mM
